Our source for the IC50 values is patent publication US10982284B2, “Compositions and methods APC, CREB, and BAD pathways to assess and affect cancer” (H. Lee Moffitt Cancer Center and Research Institute, Inc., priority 2011, dated 2021).

Common to all, as to assay: CellTiter-Blue cell viability assay
Holding throughout (format): cell-based, human
Background: Alamar Blue is a resazurin reagent that responds to reducing activity.

In one assay the test system is FUOV1. As to conditions: FUOV1 ovarian cancer cell line, 72 hours, 50% reduction in growth/viability. An excerpt:
Ovarian cancer cell lines were obtained from the American Type Culture Collection (Manassas, Va.) (CAOV3, OV90, OVCAR3, SKOV3, TOV112D); from the European Collection of Cell Cultures, Salisbury, UK (A2780CP, A2780S); or from Kyoto University, Kyoto, Japan (CHI, CHIcisR, M41, M41CSR, Tyknu, and TyknuC is R) or were kind gifts from Dr. Patricia Kruk, Department of Pathology, College of Medicine, University of South Florida, Tampa, Fla., and Susan Murphy, PhD, Dept of OBGYN/Division of GYN Oncology, Duke University, Durham, N.C. (A2008, C13, CAOV2, FUOV1, HeyA8, IGR-OV1, IMCC3, IMCC5, MCAS, OV2008, OVCA420, OVCA429, OVCA432, OVCA433, OVCAR4, OVCAR5, OVCAR8, Dov13, BG1, Ovary1847, OVCAR10, OVCAR2, SK-OV-4).
Cell lines were maintained in RPMI-1640 (Invitrogen, Carlsbad, Calif.) supplemented with 10% fetal bovine serum (Fisher Scientific, Pittsburgh, Pa.), 1% sodium pyruvate, 1% penicillin/streptomycin (Cellgro, Manassas, Va.), and 1% nonessential amino acids (HyClone, Hudson, N.H.). […]
Drug activity was evaluated using a high-throughput CellTiter-Blue cell viability assay. […] Fluorescence was read at […] using a Synergy 4 microplate reader (Bio-Tek Instruments, Inc., Winooski, Vt.). IC50 results were determined using a sigmoidal equilibrium model fit (XLfit 5.2, ID Business Solutions Ltd.). […]

Another assay has as its system OVCAR8. As to conditions: OVCAR8 ovarian cancer cell line, 72 hours, 50% reduction in growth/viability. From the text: (§1) Ovarian cancer cell lines were obtained from the American Type Culture Collection (Manassas, Va.) (CAOV3, OV90, OVCAR3, SKOV3, TO[…]); from the European Collection of Cell Cultures, Salisbury, UK (A2780CP, A2780S); or from Kyoto University, Kyoto, Japan ([…], Tyknu, and TyknuC is R) or were kind gifts from Dr. Patricia Kruk, Department of Pathology, College of Medicine, University of South Florida, Tampa, Fla., and Susan Murphy, PhD, Dept of OBGYN/Division of GYN Oncology, Duke University, Durham, N.C. […] Cell lines were maintained in RPMI-1640 (Invitrogen, Carlsbad, Calif.) supplemented with 10% fetal bovine serum (Fisher Scientific, Pittsburgh, Pa.), 1% sodium pyruvate, 1% penicillin/streptomycin (Cellgro, Manassas, Va.), and 1% nonessential amino acids (HyClone, Hudson, N.H.). Mycoplasma testing was performed every 6 months following manufacturer's protocol (Lonza, Rockland, Me.). Drug activity was evaluated using a high-throughput CellTiter-Blue cell viability assay. […] After cell adherence, increasing concentrations of cisplatin, carboplatin (Sigma-Aldrich, St. Louis, Mo.), paclitaxel (Sequoia Research Products Ltd., Pangbourne, UK), or carboplatin plus paclitaxel (carbotaxol: constant molar ratio of carboplatin to paclitaxel of 20,000:1) were added to appropriate wells using an automated pipetting station. Four replicate wells were used for each drug concentration and vehicle controls. […] The cells were incubated with the drug for 72 hours, and 5 μL of CellTiter-Blue reagent (Promega Corp) was added to each well. Fluorescence was read at […] using a Synergy 4 microplate reader (Bio-Tek Instruments, Inc., Winooski, Vt.).

In another assay the test system is SKOV3. The conditions noted are these: SKOV3 ovarian cancer cell line, 72 hours, 50% reduction in growth/viability.
Excerpt: as §1

A further assay has as its system M41CSR. The conditions noted are these: M41CSR ovarian cancer cell line, 72 hours, 50% reduction in growth/viability.
Excerpt: as §1

A further assay concerns HeyA8. The conditions noted are these: HeyA8 ovarian cancer cell line, 72 hours, 50% reduction in growth/viability.
Excerpt: as §1

The next assay relates to C13. The conditions noted are these: C13 ovarian cancer cell line, 72 hours, 50% reduction in growth/viability.
Excerpt: as §1

The next assay deals with Tyknu. As to conditions: Tyknu ovarian cancer cell line, 72 hours, 50% reduction in growth/viability.
Excerpt: as §1

A further assay has as its system OVCA429. As to conditions: OVCA429 ovarian cancer cell line, 72 hours, 50% reduction in growth/viability.
Excerpt: as §1

A further assay concerns OV90. As to conditions: OV90 ovarian cancer cell line, 72 hours, 50% reduction in growth/viability.
Excerpt: as §1

A further assay deals with OV2008. As to conditions: OV2008 ovarian cancer cell line, 72 hours, 50% reduction in growth/viability.
Excerpt: as §1

The subject of a further assay is OVCAR3. As to conditions: OVCAR3 ovarian cancer cell line, 72 hours, 50% reduction in growth/viability.
Excerpt: as §1

The test system of another assay is OVCAR4. As to conditions: OVCAR4 ovarian cancer cell line, 72 hours, 50% reduction in growth/viability.
Excerpt: as §1

In the next assay the test system is M41. As to conditions: M41 ovarian cancer cell line, 72 hours, 50% reduction in growth/viability.
Excerpt: as §1

A further assay concerns IGR-OV1. The conditions noted are these: IGR-OV1 ovarian cancer cell line, 72 hours, 50% reduction in growth/viability.
Excerpt: as §1

In the next assay the test system is BG1. The conditions noted are these: BG1 ovarian cancer cell line, 72 hours, 50% reduction in growth/viability.
Excerpt: as §1

On to `N.N.O=C([O-])C1(C(=O)[O-])CCC1.[Pt+2]` [Carboplatin, carboplatin], for which the IC50 (in general, the point on the concentration scale where inhibition reaches its midpoint) with FUOV1 was 87.9 µM; with OVCAR8, 56.1 µM; in the assay with SKOV3 it was 247 µM; in the assay on M41CSR, 48.2 µM; in the assay with HeyA8, 291 µM; with C13, 56.8 µM. Further, the concentration for half-maximal inhibition (IC50) was found to be 9.6 µM with Tyknu; 225 µM in the assay with OVCA429; 213 µM in the assay with OV90; 45.1 µM in the assay on OV2008; 83.7 µM in the assay on OVCAR3; 72 µM in the assay on OVCAR4. Besides, the IC50 was 41.6 µM in the assay on M41, 65.4 µM with IGR-OV1 and 144 µM with BG1.

For `CC(=O)O[C@H]1C(=O)[C@@]2(C)[C@H]([C@H](OC(=O)c3ccccc3)[C@]3(O)C[C@H](OC(=O)[C@H](O)[C@@H](NC(=O)c4ccccc4)c4ccccc4)C(C)=C1C3(C)C)[C@]1(OC(C)=O)CO[C@@H]1C[C@@H]2O` [Paclitaxel, paclitaxel], the IC50 with FUOV1 (Homo sapiens) was found to be 4.4 µM; with OVCAR8 (Homo sapiens, OVCAR-8), 0.0057 µM; in the assay with SKOV3 (Homo sapiens, SK-OV-3) it was 0.0887 µM; in the assay on M41CSR (Homo sapiens), 0.0025 µM; in the assay with HeyA8 (Homo sapiens, HEY A8) it was 0.0174 µM; with C13 (Homo sapiens), 0.0032 µM. The half-maximal inhibitory concentration (IC50) was 0.0083 µM in the assay on Tyknu (Homo sapiens); 0.0029 µM in the assay on OVCA429 (Homo sapiens); 0.108 µM in the assay with OV90 (Homo sapiens, OV-90); 0.0139 µM in the assay on OV2008 (Homo sapiens); 0.0169 µM in the assay on OVCAR3 (Homo sapiens, OVCAR-3); 0.0178 µM with OVCAR4 (Homo sapiens, OVCAR-4). For the same compound, the IC50 in the assay on M41 (Homo sapiens) stood at 0.0063 µM; with IGR-OV1 (Homo sapiens, IGROV-1) it was 0.0374 µM; in the assay with BG1 (Homo sapiens, BG-1), 0.0055 µM.
